Measured values: US12594276B2, “Inhibitors of human immunodeficiency virus replication” (ViiV Healthcare UK (No.5) Limited, priority 2024, dated 2026)

Tests used:
[1] = Compound cytotoxicity, XTT-based colorimetric assay; assay type: cell-based; settings: human; uninfected MT2 cells, day 4, XTT; read-out: CC50
Method in brief: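 Uninfected MT2 cells were treated with compound under the same protocol as the antiviral assay. Viability was read on day 4 with an XTT colorimetric assay, from which CC50 values were derived.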

[2] = system: recombinant NL4-3 virus (nef section replaced with Renilla luciferase gene) in MT-2 cells; assay: HIV cell culture assay (antiviral activity, luciferase readout); assay type: cell-based; settings: Renilla, NL43, MT-2 cells infected for 4-5 days with recombinant NL4-3 Renilla luciferase virus
Method in brief: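 EC50 was derived by median-effect fitting of Renilla luciferase signal from MT-2 cells. These cells were infected for 4–5 days with NL4-3 reporter virus (nef partly replaced by luciferase; made in 293T cells) in the presence of serially diluted compound. Activity was quantified with a live-cell luciferase substrate.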

Which results are given for `CS(=O)(=O)Nc1nn(CCN2CCCC(F)(F)C2)c2c(-n3c([C@H](Cc4cc(F)cc(F)c4)NC(=O)Cn4nc(C(F)F)c5c4C(F)(F)[C@@H]4C[C@H]54)nc4nc(C5CCC(F)(F)CC5)ccc4c3=O)ccc(Cl)c12` (atropisomer, axis not shown; (P)) [Example 168, N-[(1S)-1-[(3P)-3-{4-chloro-1-[2-(3,3-difluoropiperidin-1-yl)ethyl]-3-methanesulfonamido-1H-indazol-7-yl}-7-(4,4-difluorocyclohexyl)-4-oxo-3H,4H-pyrido[2,3-d]pyrimidin-2-yl]-2-(3,5-difluorophenyl)ethyl]-2-[(2S,4R)-9-(difluoromethyl)-5,5-difluoro-7,8-diazatricyclo[4.3.0.0^2,^4]nona-1(6),8-dien-7-yl]acetamide]?
CC50 at 4 days [1]: > 50 nM; EC50 [2]: 0.018 nM

Which CC50 at 4 days [1] does the source give for `CS(=O)(=O)Nc1nn(CCN2CCC3(CC2)COC3)c2c(-n3c([C@H](Cc4cc(F)cc(F)c4)NC(=O)Cn4nc(C(F)F)c5c4C(F)(F)[C@@H]4C[C@H]54)nc4nc(C5CCC(F)(F)CC5)ccc4c3=O)ccc(Cl)c12` (atropisomer, axis not shown; (P)) [Example 170, N-[(1S)-1-[(3P)-3-[4-chloro-3-methanesulfonamido-1-(2-{2-oxa-7-azaspiro[3.5]nonan-7-yl}ethyl)-1H-indazol-7-yl]-7-(4,4-difluorocyclohexyl)-4-oxo-3H,4H-pyrido[2,3-d]pyrimidin-2-yl]-2-(3,5-difluorophenyl)ethyl]-2-[(2S,4R)-9-(difluoromethyl)-5,5-difluoro-7,8-diazatricyclo[4.3.0.0^2,^4]nona-1(6),8-dien-7-yl]acetamide] here?
The CC50 at 4 days was > 50 nM.

What about the EC50 [2] of the same compound?
Its EC50 is 0.032 nM.

Which results are given for `CS(=O)(=O)Nc1nn(CCN2CCOC3(CC3)C2)c2c(-n3c([C@H](Cc4cc(F)cc(F)c4)NC(=O)Cn4nc(C(F)F)c5c4C(F)(F)[C@@H]4C[C@H]54)nc4nc(C5CCC(F)(F)CC5)ccc4c3=O)ccc(Cl)c12` (atropisomer, axis not shown; (P)) [Example 176, N-[(1S)-1-[(3P)-3-[4-chloro-3-methanesulfonamido-1-(2-{4-oxa-7-azaspiro[2.5]octan-7-yl}ethyl)-1H-indazol-7-yl]-7-(4,4-difluorocyclohexyl)-4-oxo-3H,4H-pyrido[2,3-d]pyrimidin-2-yl]-2-(3,5-difluorophenyl)ethyl]-2-[(2S,4R)-9-(difluoromethyl)-5,5-difluoro-7,8-diazatricyclo[4.3.0.0^2,^4]nona-1(6),8-dien-7-yl]acetamide]?
CC50 at 4 days [1]: > 50 nM; EC50 [2]: 0.018 nM

With `CC(C)S(=O)(=O)N1CCN(CCn2nc(NS(C)(=O)=O)c3c(Cl)ccc(-n4c([C@H](Cc5cc(F)cc(F)c5)NC(=O)Cn5nc(C(F)F)c6c5C(F)(F)[C@@H]5C[C@H]65)nc5nc(C6CCC(F)(F)CC6)ccc5c4=O)c32)CC1` (atropisomer, axis not shown; (P)) [Example 195, N-[(1S)-1-[(3P)-3-(4-chloro-3-methanesulfonamido-1-{2-[4-(propane-2-sulfonyl)piperazin-1-yl]ethyl}-1H-indazol-7-yl)-7-(4,4-difluorocyclohexyl)-4-oxo-3H,4H-pyrido[2,3-d]pyrimidin-2-yl]-2-(3,5-difluorophenyl)ethyl]-2-[(2S,4R)-9-(difluoromethyl)-5,5-difluoro-7,8-diazatricyclo[4.3.0.0^2,^4]nona-1(6),8-dien-7-yl]acetamide] as the compound, how does the CC50 at 4 days [1] read?
Its CC50 at 4 days is > 50 nM.

And the EC50 [2]?
The EC50 was 0.037 nM.

Which CC50 at 4 days [1] does the source give for `CS(=O)(=O)Nc1nn(CCN2CC[C@H](F)C2)c2c(-n3c([C@H](Cc4cc(F)cc(F)c4)NC(=O)Cn4nc(C(F)F)c5c4C(F)(F)[C@@H]4C[C@H]54)nc4nc(C5CCC(F)(F)CC5)ccc4c3=O)ccc(Cl)c12` (atropisomer, axis not shown; (P)) [Example 207, N-[(1S)-1-[(3P)-3-(4-chloro-1-{2-[(3S)-3-fluoropyrrolidin-1-yl]ethyl}-3-methanesulfonamido-1H-indazol-7-yl)-7-(4,4-difluorocyclohexyl)-4-oxo-3H,4H-pyrido[2,3-d]pyrimidin-2-yl]-2-(3,5-difluorophenyl)ethyl]-2-[(2S,4R)-9-(difluoromethyl)-5,5-difluoro-7,8-diazatricyclo[4.3.0.0^2,^4]nona-1(6),8-dien-7-yl]acetamide] here?
The CC50 at 4 days was > 50 nM.

And the EC50 [2]?
The EC50 was 0.013 nM.

For `CS(=O)(=O)Nc1nn(CCN2CC[C@@H](F)C2)c2c(-n3c([C@H](Cc4cc(F)cc(F)c4)NC(=O)Cn4nc(C(F)F)c5c4C(F)(F)[C@@H]4C[C@H]54)nc4nc(C5CCC(F)(F)CC5)ccc4c3=O)ccc(Cl)c12` (atropisomer, axis not shown; (P)) [Example 208, N-[(1S)-1-[(3P)-3-(4-chloro-1-{2-[(3R)-3-fluoropyrrolidin-1-yl]ethyl}-3-methanesulfonamido-1H-indazol-7-yl)-7-(4,4-difluorocyclohexyl)-4-oxo-3H,4H-pyrido[2,3-d]pyrimidin-2-yl]-2-(3,5-difluorophenyl)ethyl]-2-[(2S,4R)-9-(difluoromethyl)-5,5-difluoro-7,8-diazatricyclo[4.3.0.0^2,^4]nona-1(6),8-dien-7-yl]acetamide], which CC50 at 4 days [1] is on record?
Its CC50 at 4 days is > 50 nM.

What about the EC50 [2] of the same compound?
Its EC50 is 0.009 nM.

With `Cc1cc(C2CCC(F)(F)CC2)nc2nc([C@H](Cc3cc(F)cc(F)c3)NC(=O)Cn3nc(C(F)F)c4c3C(F)(F)[C@@H]3C[C@H]43)n(-c3ccc(Cl)c4c(NS(C)(=O)=O)nn(CCN5CC(F)(F)C5)c34)c(=O)c12` (atropisomer, axis not shown; (P)) [Example 229, N-[(1S)-1-[(3P)-3-{4-chloro-1-[2-(3,3-difluoroazetidin-1-yl)ethyl]-3-methanesulfonamido-1H-indazol-7-yl}-7-(4,4-difluorocyclohexyl)-5-methyl-4-oxo-3H,4H-pyrido[2,3-d]pyrimidin-2-yl]-2-(3,5-difluorophenyl)ethyl]-2-[(2S,4R)-9-(difluoromethyl)-5,5-difluoro-7,8-diazatricyclo[4.3.0.0^2,4]nona-1(6),8-dien-7-yl]acetamide] as the compound, how does the CC50 at 4 days [1] read?
The CC50 at 4 days was > 50 nM.

What about the EC50 [2] of the same compound?
The EC50 was 0.013 nM.

What does the source list for `Cc1cc(C2CCC(F)(F)CC2)nc2nc([C@H](Cc3cc(F)cc(F)c3)NC(=O)Cn3nc(C4CC4)c4c3C[C@@H]3C[C@H]43)n(-c3ccc(Cl)c4c(NS(C)(=O)=O)nn(CCN5C[C@@H](C)O[C@@H](C)C5)c34)c(=O)c12` (atropisomer, axis not shown; (P)) [Example 230, N-[(1S)-1-[(3P)-3-(4-chloro-1-{2-[(2R,6S)-2,6-dimethylmorpholin-4-yl]ethyl}-3-methanesulfonamido-1H-indazol-7-yl)-7-(4,4-difluorocyclohexyl)-5-methyl-4-oxo-3H,4H-pyrido[2,3-d]pyrimidin-2-yl]-2-(3,5-difluorophenyl)ethyl]-2-[(2S,4S)-9-cyclopropyl-7,8-diazatricyclo[4.3.0.0^2,^4]nona-1(6),8-dien-7-yl]acetamide]?
CC50 at 4 days [1]: > 50 nM; EC50 [2]: 0.006 nM

With `Cc1cc(C2CCC(F)(F)CC2)nc2nc([C@H](Cc3cc(F)cc(F)c3)NC(=O)Cn3nc(C(F)F)c4c3C(F)(F)[C@@H]3C[C@H]43)n(-c3ccc(Cl)c4c(NS(C)(=O)=O)nn(CCN5CCC(F)(F)C5)c34)c(=O)c12` (atropisomer, axis not shown; (P)) [Example 231, N-[(1S)-1-[(3P)-3-{4-chloro-1-[2-(3,3-difluoropyrrolidin-1-yl)ethyl]-3-methanesulfonamido-1H-indazol-7-yl}-7-(4,4-difluorocyclohexyl)-5-methyl-4-oxo-3H,4H-pyrido[2,3-d]pyrimidin-2-yl]-2-(3,5-difluorophenyl)ethyl]-2-[(2S,4R)-9-(difluoromethyl)-5,5-difluoro-7,8-diazatricyclo[4.3.0.0^2,^4]nona-1(6),8-dien-7-yl]acetamide] as the compound, how does the CC50 at 4 days [1] read?
Its CC50 at 4 days is > 50 nM.

And the EC50 [2]?
The EC50 was 0.01 nM.

For `Cc1cc(C2CCC(F)(F)CC2)nc2nc([C@H](Cc3cc(F)cc(F)c3)NC(=O)Cn3nc(C4CC4)c4c3C[C@@H]3C[C@H]43)n(-c3ccc(Cl)c4c(NS(C)(=O)=O)nn(CCN5CCC(F)(F)C5)c34)c(=O)c12` (atropisomer, axis not shown; (P)) [Example 232, N-[(1S)-1-[(3P)-3-{4-chloro-1-[2-(3,3-difluoropyrrolidin-1-yl)ethyl]-3-methanesulfonamido-1H-indazol-7-yl}-7-(4,4-difluorocyclohexyl)-5-methyl-4-oxo-3H,4H-pyrido[2,3-d]pyrimidin-2-yl]-2-(3,5-difluorophenyl)ethyl]-2-[(2S,4S)-9-cyclopropyl-7,8-diazatricyclo[4.3.0.0^2,^4]nona-1(6),8-dien-7-yl]acetamide], which CC50 at 4 days [1] is on record?
The CC50 at 4 days was > 50 nM.

What about the EC50 [2] of the same compound?
Its EC50 is 0.009 nM.

Which results are given for `COCCOCCn1nc(NS(C)(=O)=O)c2c(Cl)ccc(-n3c([C@H](Cc4cc(F)cc(F)c4)NC(=O)Cn4nc(C5CC5)c5c4C[C@@H]4C[C@H]54)nc4nc(C5CCC(F)(F)CC5)ccc4c3=O)c21` (atropisomer, axis not shown; (P)) [Example 237, N-[(1S)-1-[(3P)-3-{4-chloro-3-methanesulfonamido-1-[2-(2-methoxyethoxy)ethyl]-1H-indazol-7-yl}-7-(4,4-difluorocyclohexyl)-4-oxo-3H,4H-pyrido[2,3-d]pyrimidin-2-yl]-2-(3,5-difluorophenyl)ethyl]-2-[(2S,4S)-9-cyclopropyl-7,8-diazatricyclo[4.3.0.0^2,^4]nona-1(6),8-dien-7-yl]acetamide]?
CC50 at 4 days [1]: > 50 nM; EC50 [2]: 0.006 nM
